Experiments:
Assay in all cases: relative viability (nuclei count vs DMSO), 5 days (fraction); higher = more cells survive
BAY61-3606 + Bortezomib = compound: COC1=C(C=C(C=C1)C2=CC3=NC=CN3C(=N2)NC4=C(C=CC=N4)C(=O)N)OC [BAY61-3606] + CC(C)C[C@H](NC(=O)[C@H](Cc1ccccc1)NC(=O)c1cnccn1)B(O)O [Bortezomib] (partner 0.002 µM)
Procedure, shortened: (§1)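 Cells from lung cancer lines were seeded into 1536-well plates and, one day later, dosed by pin tool. Treatments were either a single drug or a fixed dose of an anchor drug with five library-drug doses (not always all listed) in √10 steps. After 5 days, nuclei were stained in a one-step fixation (final 0.05% Triton X-100, 1% formaldehyde, 1 ug/ml Hoechst) and counted on 4× images, and relative viability is the treated-to-vehicle nuclei ratio, as the median of duplicate plates.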

BAY61-3606 + Luminespib = compound: COC1=C(C=C(C=C1)C2=CC3=NC=CN3C(=N2)NC4=C(C=CC=N4)C(=O)N)OC [BAY61-3606] + CCNC(=O)c1noc(-c2cc(C(C)C)c(O)cc2O)c1-c1ccc(CN2CCOCC2)cc1 [Luminespib] (partner 0.01 µM)
Procedure, shortened: as §1

BAY61-3606 + Olaparib = compound: COC1=C(C=C(C=C1)C2=CC3=NC=CN3C(=N2)NC4=C(C=CC=N4)C(=O)N)OC [BAY61-3606] + O=C(c1cc(Cc2n[nH]c(=O)c3ccccc23)ccc1F)N1CCN(C(=O)C2CC2)CC1 [Olaparib] (partner 8 µM)
Procedure, shortened: as §1

Doxorubicin + Crizotinib = compound: COc1cccc2c1C(=O)c1c(O)c3c(c(O)c1C2=O)C[C@@](O)(C(=O)CO)C[C@@H]3O[C@H]1C[C@H](N)[C@H](O)[C@H](C)O1 [Doxorubicin] + C[C@@H](Oc1cc(-c2cnn(C3CCNCC3)c2)cnc1N)c1c(Cl)ccc(F)c1Cl [Crizotinib] (partner 1 µM)
Procedure, shortened: as §1

Work on UMC-11 yielded a relative viability (BAY61-3606 + Bortezomib; first compound 0.02 µM) of 0.947, a relative viability (BAY61-3606 + Bortezomib; first compound 0.06325 µM) of 0.616 and a relative viability (BAY61-3606 + Bortezomib; first compound 0.2 µM) of 0.643. For the same cell line, the relative viability (BAY61-3606 + Bortezomib; first compound 0.6325 µM) was 0.849, the relative viability (BAY61-3606 + Bortezomib; first compound 2 µM) was 0.734 and the relative viability (BAY61-3606 + Luminespib; first compound 0.02 µM) was 1.12. For the same cell line, the relative viability (BAY61-3606 + Luminespib; first compound 0.06325 µM) was 1.17, the relative viability (BAY61-3606 + Luminespib; first compound 0.2 µM) was 1.08 and the relative viability (BAY61-3606 + Luminespib; first compound 0.6325 µM) was 1.05. The relative viability (BAY61-3606 + Luminespib; first compound 2 µM) was 0.921, the relative viability (BAY61-3606 + Olaparib; first compound 0.02 µM) was 0.351 and the relative viability (BAY61-3606 + Olaparib; first compound 0.06325 µM) was 0.385. For the same cell line, the relative viability (BAY61-3606 + Olaparib; first compound 0.2 µM) was 0.268, the relative viability (BAY61-3606 + Olaparib; first compound 0.6325 µM) was 0.643 and the relative viability (BAY61-3606 + Olaparib; first compound 2 µM) was 0.266. For the same cell line, the relative viability (Doxorubicin + Crizotinib; first compound 0.001 µM) was 0.539, the relative viability (Doxorubicin + Crizotinib; first compound 0.003162 µM) was 0.66 and the relative viability (Doxorubicin + Crizotinib; first compound 0.01 µM) was 0.648. It also gave a relative viability (Doxorubicin + Crizotinib; first compound 0.03162 µM) of 0.309 and a relative viability (Doxorubicin + Crizotinib; first compound 0.1 µM) of 0.386.
